# Experimental data reported in article PMC3141655 (BMC Biochemistry, 2011).
# Where two headings read alike, the source gives them in different places.
# Legend:
# [1] = target: T1, StOASS (O-acetylserine sulfhydrylase) (Salmonella typhimurium, UniProt P0A1E3); assay: PLP fluorescence titration of ligands with StOASS; format: binding; design: His tag (N); made in house; host or cells: E. coli BL21(DE3), pET28a(+)
# Experimental: Titrations of ligands with StOASS were examined by monitoring changes in the active site pyridoxal 5'phosphate (PLP) fluorescence of OASS using a Varian spectrofluorometer. The excitation and emission wavelengths for monitoring PLP signal change upon ligand binding were 412 nm and 507 nm respectively. All experiments were done at 23.0 ± 1°C. Slit widths were set to 5 nm for all experiments and PMT voltage was adjusted to get maximum signal for a given protein concentration. Initial readings of both the sample, Fsamp,0 and buffer, Fbuf,0 were taken, with F0 = Fsamp,0-Fbuf,0 defined as the initial fluorescence of the sample. The sample cuvette was then titrated with aliquots of ligands and mixed, equilibrated for 2-5 minutes before measurement. Data points from five such measurements were averaged to obtain Fave,i. The relative fluorescence quenching upon ligand binding is defined as Qobs,i = (F0-Fobs,i)/F0. All measurements were corrected for dilution, and inner filter effects.
# Binding of ligands to OASS was analyzed to obtain the equilibrium binding constant, Kobs = [PL]/[P]*[L], using a single or two independent site binding models (eqn 1)(1) [drawing 1]
# Where n, number of binding sites, Qobs, observed fluorescence quenching and Qmax, the maximum fluorescence quenching at saturation.
# [2] = target: T2, HiOASS (O-acetylserine sulfhydrylase) (Haemophilus influenzae, UniProt P45040); conditions: for TdS / ΔG / ΔH: 20 mM Tris pH 8.0, 50 mM NaCl
# T2 sequence (P45040 whole entry): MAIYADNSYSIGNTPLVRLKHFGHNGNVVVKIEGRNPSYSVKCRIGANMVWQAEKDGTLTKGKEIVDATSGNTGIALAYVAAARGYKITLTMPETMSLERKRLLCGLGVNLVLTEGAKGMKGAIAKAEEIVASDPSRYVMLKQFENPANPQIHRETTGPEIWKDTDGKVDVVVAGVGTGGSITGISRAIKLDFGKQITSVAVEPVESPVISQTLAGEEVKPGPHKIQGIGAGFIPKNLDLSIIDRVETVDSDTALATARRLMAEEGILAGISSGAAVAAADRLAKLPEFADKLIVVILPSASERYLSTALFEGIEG
# Experimental: (§1) Isothermal titration calorimetry (ITC) experiments were performed using a Nano-ITC (TA-Instruments). OASS was dialyzed at 25°C in 20 mM Tris buffer (pH 8.0) and 50 mM NaCl. Buffer solutions were degassed at room temperature prior to use. […] The heat of dilution for each injection was determined using buffer in the cell. Data obtained from the titration of ligands with OASS were analyzed using either a two-sites binding model (eqn 2)(2) [drawing 2]
# (§2) Qi^tot is total heat after the i^th injection, V0 is the volume of calorimetric cell, K1 and K2 are the observed equilibrium constants for each site, and ΔH1 and ΔH2 are the corresponding enthalpy changes. Estimates of Kobs and ΔH were obtained by fitting the experimental data to the model and the best-fit parameters were selected based on the lowest Chi-squared values.
# [3] = target: T2, HiOASS (O-acetylserine sulfhydrylase); assay: PLP fluorescence titration of ligands with HiOASS; format: binding; design: His tag (N); made in house; host or cells: E. coli BL21(DE3), pET28a(+); conditions: 20 mM Tris pH 8.0
# [4] = target: T1, StOASS (O-acetylserine sulfhydrylase)
# Experimental: as §1, §2
# [5] = [NaCl] 0.02 M, 20 mM Tris pH 8.0
# [6] = [NaCl] 0.05 M, 20 mM Tris pH 8.0
# [7] = [NaCl] 0.1 M, 20 mM Tris pH 8.0
# [8] = [NaCl] 0.2 M, 20 mM Tris pH 8.0
# [9] = [NaCl] 0.5 M, 20 mM Tris pH 8.0
# [10] = from dependence of enthalpy on temperature
# [11] = 10°C, 20 mM Tris pH 8.0, 50 mM NaCl
# [12] = 15°C, 20 mM Tris pH 8.0, 50 mM NaCl
# [13] = 20°C, 20 mM Tris pH 8.0, 50 mM NaCl
# [14] = 25°C, 20 mM Tris pH 8.0, 50 mM NaCl
# [15] = 30°C, 20 mM Tris pH 8.0, 50 mM NaCl
# [16] = 35°C, 20 mM Tris pH 8.0, 50 mM NaCl
# T1 sequence (P0A1E3 whole entry): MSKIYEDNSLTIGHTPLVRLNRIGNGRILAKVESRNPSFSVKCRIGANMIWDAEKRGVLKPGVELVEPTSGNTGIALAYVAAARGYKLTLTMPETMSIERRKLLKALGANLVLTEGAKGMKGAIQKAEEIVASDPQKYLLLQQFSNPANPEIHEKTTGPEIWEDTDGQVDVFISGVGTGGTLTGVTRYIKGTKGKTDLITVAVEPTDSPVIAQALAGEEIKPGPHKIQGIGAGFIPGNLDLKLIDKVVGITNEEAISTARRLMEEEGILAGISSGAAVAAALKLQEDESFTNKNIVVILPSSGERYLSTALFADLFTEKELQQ
compound,measurement,setting,value
"N[C@@H](CS)C(=O)O [Cysteine, L-cysteine]",dlogK/dlog [NaCl],[1]; [NaCl] 0.02-0.5 M,~ -0.21 ± 0.1
same,N (number of binding sites),[1]; [5],2
same,Qmax (maximum fluorescence quenching at saturation),[1]; [5],3.8
same,ΔG,[1]; [5],-15.0 ± 0.1 kJ/mol
same,Kobs,"[1]; [NaCl] 0.02 M, 20 mM Tris pH 8.0, similar for each of two sites",6.0 ± 0.1 × 10^2 M^-1
same,Kobs,"[1]; [NaCl] 0.02 M, 20 mM Tris pH 8.0, similar for each of two sites, listed as cysteine",600 M⁻¹
same,Kobs,[1]; [6],5.6 ± 0.1 × 10^2 M^-1
same,N (number of binding sites),[1]; [6],2
same,Qmax,[1]; [6],4.6
same,ΔG,[1]; [6],-14.9 ± 0.1 kJ/mol
same,Kobs,[1]; [7],4.5 ± 0.1 × 10^2 M^-1
same,N (number of binding sites),[1]; [7],2
same,Qmax,[1]; [7],4.6
same,ΔG,[1]; [7],-14.3 ± 0.1 kJ/mol
same,Kobs,[1]; [8],3.7 ± 0.1 × 10^2 M^-1
same,N (number of binding sites),[1]; [8],2
same,Qmax,[1]; [8],4.5
same,ΔG,[1]; [8],-13.9 ± 0.1 kJ/mol
same,Kobs,[1]; [9],2.6 ± 0.1 × 10^2 M^-1
same,N (number of binding sites),[1]; [9],2
same,Qmax,[1]; [9],4.7
same,ΔG,[1]; [9],-13.0 ± 0.1 kJ/mol
same,Kd,"[1]; from K1,obs and K2,obs of the PLP fluorescence titration, read-out: Kd",~1.7 mM
same,TdS,[2]; 10°C,3.7 kJ/mol
same,ΔG,[2]; 10°C,-8.3 ± 0.4 kJ/mol
same,ΔH,[2]; 10°C,-4.6 ± 0.1 kJ/mol
same,TdS,[2]; 15°C,4.1 kJ/mol
same,ΔG,[2]; 15°C,-8.7 ± 0.2 kJ/mol
same,ΔH,[2]; 15°C,-4.6 ± 0.2 kJ/mol
same,TdS,[2]; 20°C,5.1 kJ/mol
same,ΔG,[2]; 20°C,-9.5 ± 0.5 kJ/mol
same,ΔH,[2]; 20°C,-4.4 ± 0.2 kJ/mol
same,TdS,[2]; 25°C,4.1 kJ/mol
same,ΔG,[2]; 25°C,-9.5 ± 0.5 kJ/mol
same,ΔH,[2]; 25°C,-5.4 ± 0.3 kJ/mol
same,TdS,[2]; 30°C,6.5 kJ/mol
same,ΔG,[2]; 30°C,-11.0 ± 0.3 kJ/mol
same,ΔH,[2]; 30°C,-4.5 ± 0.4 kJ/mol
same,heat capacity change ΔCp,[2]; [10],-12 JK^-1M^-1
same,Kobs,[3]; [NaCl] 0.02 M,6.6 ± 0.1 × 10^2 M^-1
same,N (number of binding sites),[3]; [NaCl] 0.02 M,2
same,Qmax,[3]; [NaCl] 0.02 M,3.9
same,ΔG,[3]; [NaCl] 0.02 M,-15.2 ± 0.1 kJ/mol
same,Kobs,[3]; [NaCl] 0.05 M,5.6 ± 0.1 × 10^2 M^-1
same,N (number of binding sites),[3]; [NaCl] 0.05 M,2
same,Qmax,[3]; [NaCl] 0.05 M,5.7
same,Kobs,[3]; [NaCl] 0.1 M,4.5 ± 0.1 × 10^1 M^-1
same,N (number of binding sites),[3]; [NaCl] 0.1 M,2
same,Qmax,[3]; [NaCl] 0.1 M,5.8
same,ΔG,[3]; [NaCl] 0.1 M,-9.0 ± 0.1 kJ/mol
same,Kobs,[3]; [NaCl] 0.2 M,3.1 ± 0.1 × 10^1 M^-1
same,N (number of binding sites),[3]; [NaCl] 0.2 M,2
same,Qmax,[3]; [NaCl] 0.2 M,5.8
same,ΔG,[3]; [NaCl] 0.2 M,-8.0 ± 0.1 kJ/mol
same,Kobs,[3]; [NaCl] 0.5 M,3.2 ± 0.1 × 10^1 M^-1
same,N (number of binding sites),[3]; [NaCl] 0.5 M,2
same,Qmax,[3]; [NaCl] 0.5 M,3.1
same,ΔG,[3]; [NaCl] 0.5 M,-8.0 ± 0.1 kJ/mol
same,TdS,[4]; [11],6.9 kJ/mol
same,ΔH,[4]; [11],-2.7 ± 0.1 kJ/mol
same,ΔG,"[4]; 10°C, 20 mM Tris pH 8.0, 50 mM NaCl, two independent sites model",-9.6 ± 0.4 kJ/mol
same,TdS,[4]; [12],6.8 kJ/mol
same,ΔG,[4]; [12],-9.6 ± 0.3 kJ/mol
same,ΔH,[4]; [12],-2.8 ± 0.1 kJ/mol
same,TΔS,[4]; 20°C,3.4 kJ/M
same,ΔH,[4]; 20°C,-6.4 ± 0.1 kJ/M
same,TdS,[4]; [13],3.4 kJ/mol
same,ΔG,[4]; [13],-9.8 ± 0.1 kJ/mol
same,ΔH,[4]; [13],-6.4 ± 0.1 kJ/mol
same,TdS,[4]; [14],4.7 kJ/mol
same,ΔG,[4]; [14],-10.6 ± 0.1 kJ/mol
same,ΔH,[4]; [14],-5.9 ± 0.1 kJ/mol
same,TdS,[4]; [15],5.8 kJ/mol
same,ΔG,[4]; [15],-10.2 ± 0.2 kJ/mol
same,ΔH,[4]; [15],-4.4 ± 0.2 kJ/mol
same,TdS,[4]; [16],5.6 kJ/mol
same,ΔG,[4]; [16],-11.0 ± 0.2 kJ/mol
same,ΔH,[4]; [16],-5.4 ± 0.3 kJ/mol
same,net heat capacity change ΔCp,[4]; [10],-130 JK^-1M^-1
"CC[C@H](C)[C@H](N)C(=O)O [isoleucine, L-isoleucine]",binding to OASS when presented as amino acid,[1]; similar experimental conditions as cysteine/methionine titrations,does not bind OASS
